The values below come from patent US7842671B1, “Peptidomimetic inhibitors of STAT activity and uses thereof” (University of South Florida, priority 2003, dated 2010).

Experiment [1] concerns the target T1, Stat1:Stat1 (Mus musculus, UniProt P42225).
T1 construct: nuclear extracts (prepared from epidermal growth factor (EGF)-stimulated fibroblasts); endogenous in cells; host or cells: NIH3T3 fibroblasts stimulated with EGF
T1 sequence (P42225 1-749): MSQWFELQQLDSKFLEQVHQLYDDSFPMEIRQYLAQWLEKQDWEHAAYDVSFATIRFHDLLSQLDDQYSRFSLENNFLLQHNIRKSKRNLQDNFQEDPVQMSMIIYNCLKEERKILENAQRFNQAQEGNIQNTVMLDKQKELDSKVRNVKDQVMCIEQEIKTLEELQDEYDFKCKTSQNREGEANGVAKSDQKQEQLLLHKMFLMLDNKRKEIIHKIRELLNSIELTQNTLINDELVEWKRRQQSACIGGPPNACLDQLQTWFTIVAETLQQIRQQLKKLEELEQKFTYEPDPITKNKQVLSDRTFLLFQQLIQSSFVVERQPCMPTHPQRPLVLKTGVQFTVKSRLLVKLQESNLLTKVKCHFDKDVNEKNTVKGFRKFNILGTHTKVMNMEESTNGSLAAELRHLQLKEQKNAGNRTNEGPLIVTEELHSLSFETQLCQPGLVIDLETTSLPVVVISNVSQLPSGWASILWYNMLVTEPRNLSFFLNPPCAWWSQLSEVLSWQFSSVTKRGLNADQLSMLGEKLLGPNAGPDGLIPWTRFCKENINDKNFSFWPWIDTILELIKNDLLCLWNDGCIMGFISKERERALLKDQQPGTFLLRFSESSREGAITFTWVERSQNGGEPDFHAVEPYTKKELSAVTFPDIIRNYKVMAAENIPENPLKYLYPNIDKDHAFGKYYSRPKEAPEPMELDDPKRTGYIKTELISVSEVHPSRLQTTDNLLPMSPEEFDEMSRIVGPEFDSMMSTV
As to the kind of experiment: EMSA of Stat1:Stat1 DNA-binding in nuclear extracts. Type of experiment: biochemical. The method, then: (§1) Nuclear extract preparation and gel shift assays. Nuclear extracts were prepared from cell lines and used for electrophoretic mobility shift assay (EMSA) as previously described (Garcia, R. et al. (1997); Yu, C. L. et al. (1995); Turkson, J. et al. (1998)). In some cases, cells were pre-treated with peptidomimetics for the indicated times (12-48 h) prior to harvesting for nuclear extract preparation. In other studies, nuclear extracts were pre-incubated with peptidomimetics for 30 min at room temperature prior to incubation with radiolabeled probe. The ^32P-radiolabeled oligonucleotide probes used are hSIE (high affinity sis-inducible element, m67 variant, 5′-[…]-3′) (SEQ ID NO. 3) that binds both Stat1 and Stat3 (Garcia, R. et al. (1997); Wagner B. J. et al. (1990)) and MGFe (mammary gland factor element from the bovine β-casein gene promoter, 5′-[…]-3′) (SEQ ID NO. 4) that binds Stat1 and Stat5 (Gouilleux, F. et al. (1995); Seidel, H. M. et al. (1995)).
Peptidomimetics of the invention can be prepared by replacing prolyl or alanyl residue at the peptide bond that is N-terminal to the phosphotyrosine (Y*) of a peptide such as PY*L or AY*L with an organic substituent such as an optionally substituted aryl or heteroaryl group. The activities of STATs were measured in nuclear extracts (prepared from epidermal growth factor (EGF)-stimulated fibroblasts) as DNA-bound protein complexes by electrophoretic mobility shift assay (EMSA). STAT-DNA complexes detected include Stat3:Stat3 homodimers (upper band), Stat1:Stat3 heterodimers (intermediate band) and Stat1:Stat1 homodimers (lower band) (FIG. 1A) when a ^32P-labeled hSIE oligonucleotide probe is used, or Stat5:Stat5 (upper band) and Stat1:Stat1 dimers (lower band) (FIG. 1B) when ^32P-labeled MGFe is used as a probe.

The target in experiment [2] is Stat3 (Mus musculus, UniProt P42227). Kind of experiment: EMSA of Stat3 DNA-binding activity in nuclear extracts (hSIE probe). Details: nuclear extracts (prepared from epidermal growth factor (EGF)-stimulated fibroblasts); endogenous in cells; host or cells: NIH3T3 fibroblasts stimulated with EGF. Type of experiment: biochemical. The conditions noted are these: EMSA. The method, then: as §1
Peptidomimetics of the invention can be prepared by replacing prolyl or alanyl residue at the peptide bond that is N-terminal to the phosphotyrosine (Y*) of a peptide such as PY*L or AY*L with an organic substituent such as an optionally substituted aryl or heteroaryl group. The activities of STATs were measured in nuclear extracts (prepared from epidermal growth factor (EGF)-stimulated fibroblasts) as DNA-bound protein complexes by electrophoretic mobility shift assay (EMSA).
From densitometric analysis of band intensities, the IC50 values (concentration of peptidomimetic at which DNA-binding activity is reduced by 50%), which are reported in Table 3, were determined.
(In general: Mobility shift assays separate free from complexed probe on a gel.)

Chain of Stat3 (P42227 whole entry): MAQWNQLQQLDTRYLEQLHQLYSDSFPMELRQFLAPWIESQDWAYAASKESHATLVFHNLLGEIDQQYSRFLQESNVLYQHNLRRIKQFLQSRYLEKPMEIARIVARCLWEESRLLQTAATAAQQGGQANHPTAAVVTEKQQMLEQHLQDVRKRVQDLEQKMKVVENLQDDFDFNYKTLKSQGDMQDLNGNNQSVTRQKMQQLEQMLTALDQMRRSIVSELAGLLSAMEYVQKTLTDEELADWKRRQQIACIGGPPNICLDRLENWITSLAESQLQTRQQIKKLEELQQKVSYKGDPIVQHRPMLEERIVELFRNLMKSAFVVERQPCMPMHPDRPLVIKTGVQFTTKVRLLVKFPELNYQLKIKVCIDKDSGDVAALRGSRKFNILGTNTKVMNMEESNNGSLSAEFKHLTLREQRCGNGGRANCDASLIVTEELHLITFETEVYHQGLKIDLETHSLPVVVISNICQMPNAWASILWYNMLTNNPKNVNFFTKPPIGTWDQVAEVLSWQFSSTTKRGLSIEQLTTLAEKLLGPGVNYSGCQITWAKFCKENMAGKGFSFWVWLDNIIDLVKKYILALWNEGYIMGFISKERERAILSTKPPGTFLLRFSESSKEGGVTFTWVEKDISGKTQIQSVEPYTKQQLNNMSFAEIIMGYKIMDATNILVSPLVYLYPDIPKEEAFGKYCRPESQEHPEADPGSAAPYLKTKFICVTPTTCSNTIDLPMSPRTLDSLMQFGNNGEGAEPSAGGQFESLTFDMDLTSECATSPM

For the compound `CC(C)CC(NC(=O)C(Cc1ccc(OP(=O)(O)O)cc1)NC(=O)c1ccc(C#N)cc1)C(=O)O` (stereo not drawn) [ISS 610], the IC50 (usually the concentration at which inhibition is half-maximal) in experiment [1] stood at 310 µM. Moreover, the “increase in potency in inhibiting Stat3 DNA-binding activity compared to tripeptides PY*L or AY*L” value in experiment [2] (in vitro) is listed as 5 fold. Further, the “effect on Stat3 DNA-binding activity in vitro (in words)” value in experiment [2] (nuclear extracts) is “potent disrupters of active Stat3”.
